Article PMC12377202, “Design, synthesis, and cytotoxic evaluation of quinazoline-based derivatives as VEGER-2 inhibitors: comparative study against EGFR kinase activity, induction of apoptosis, and molecular docking study” (RSC Advances, 2025)

How the values were obtained:
[1] = target: EGFR (Homo sapiens, UniProt P00533); assay: EGFR kinase inhibition assay (ELISA kit)
[2] = test system: TNF-alpha; assay: TNF-alpha level in HepG-2 cells; format: cell-based, human; settings: control 43.48
Protocol: (§1) All synthesized compounds were tested at their cytotoxic concentrations in HepG-2 cells for analysis of gene expression levels of apoptotic markers caspase-3, caspase-9, TNF-α, and IL-6 proteins, and only two active compounds were tested for BAX and Bcl-2 proteins.
(§2) through Flow cytometric analysis.
(§3) Pellets were collected again and incubated with
(§4) Total RNA from vehicle-treated
(§5) (Thermo Scientific, USA).
(§6) All experiments were performed in […]

[3] = test system: K-562; assay: MTT anti-proliferative assay, K-562; format: cell-based, human; settings: Homo sapiens, K562
[4] = test system: caspase-3; assay: Caspase-3 expression level in HepG-2 cells; format: cell-based, human; settings: for Caspase-3 ± SE: HepG-2, at IC50 concentrations, control 0.460
Protocol: as §1, §2, §3, §4, §5, §6

[5] = target: VEGFR-2 (Homo sapiens, UniProt P35968); assay: In vitro VEGFR-2 inhibitory assay (ELISA kit); settings: VEGFR-2 kinase
Sequence of VEGFR-2 (P35968 20-1356): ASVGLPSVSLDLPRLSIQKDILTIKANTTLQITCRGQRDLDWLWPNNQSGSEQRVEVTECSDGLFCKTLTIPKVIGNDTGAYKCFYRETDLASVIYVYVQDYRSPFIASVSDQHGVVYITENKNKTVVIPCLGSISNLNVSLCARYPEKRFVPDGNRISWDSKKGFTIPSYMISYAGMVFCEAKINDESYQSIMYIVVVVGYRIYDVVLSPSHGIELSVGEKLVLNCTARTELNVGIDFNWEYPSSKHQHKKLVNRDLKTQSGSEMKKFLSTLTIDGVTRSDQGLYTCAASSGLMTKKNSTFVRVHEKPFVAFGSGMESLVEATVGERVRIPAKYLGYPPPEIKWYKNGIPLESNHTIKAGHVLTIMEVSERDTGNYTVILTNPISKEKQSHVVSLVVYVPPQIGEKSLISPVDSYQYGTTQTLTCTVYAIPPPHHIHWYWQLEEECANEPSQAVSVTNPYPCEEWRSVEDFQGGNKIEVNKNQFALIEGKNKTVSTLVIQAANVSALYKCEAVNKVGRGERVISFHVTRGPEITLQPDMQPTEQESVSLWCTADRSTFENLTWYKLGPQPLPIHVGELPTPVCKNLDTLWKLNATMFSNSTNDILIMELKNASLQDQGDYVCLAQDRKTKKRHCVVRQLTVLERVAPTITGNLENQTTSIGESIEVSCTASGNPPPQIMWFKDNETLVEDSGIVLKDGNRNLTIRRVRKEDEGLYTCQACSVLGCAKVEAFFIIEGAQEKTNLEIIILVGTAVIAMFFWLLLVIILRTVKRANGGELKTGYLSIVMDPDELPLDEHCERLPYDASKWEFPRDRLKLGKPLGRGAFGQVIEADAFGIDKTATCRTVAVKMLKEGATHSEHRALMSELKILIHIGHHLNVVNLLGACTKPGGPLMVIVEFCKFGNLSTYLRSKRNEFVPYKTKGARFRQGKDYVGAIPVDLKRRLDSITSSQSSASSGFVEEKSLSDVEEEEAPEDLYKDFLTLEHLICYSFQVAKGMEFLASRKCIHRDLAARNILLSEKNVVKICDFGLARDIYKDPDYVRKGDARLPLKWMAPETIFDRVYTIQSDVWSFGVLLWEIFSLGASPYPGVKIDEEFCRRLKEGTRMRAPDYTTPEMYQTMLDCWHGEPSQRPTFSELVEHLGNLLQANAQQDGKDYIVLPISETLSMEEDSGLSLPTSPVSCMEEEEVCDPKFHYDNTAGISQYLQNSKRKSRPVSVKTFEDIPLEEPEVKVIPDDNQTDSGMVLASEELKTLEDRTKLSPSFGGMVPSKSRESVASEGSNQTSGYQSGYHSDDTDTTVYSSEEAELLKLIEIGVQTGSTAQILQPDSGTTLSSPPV

[6] = MTT cytotoxicity against normal cells; format: cell-based, human; settings: human
[7] = test system: HEK-293; assay: MTT cytotoxicity against normal cells; format: cell-based, human
[8] = test system: HepG-2; assay: MTT anti-proliferative assay, HepG-2; format: cell-based, human; settings: Homo sapiens, HepG2
[9] = test system: HepG-2 cells; assay: Cell cycle analysis (PI staining, flow cytometry); format: cell-based, human
Protocol: In order to cause cytotoxicity, anticancer medicines must stop cell division at specific checkpoints, which are discrete stages of the cell cycle.
Propidium iodide (PI) staining and flow cytometry analysis[74,75] were used to analyze the cell cycle for derivatives 8a and 9a, as illustrated in the SI.
as §2, §3, §4, §5, §6

[10] = test system: caspase-9; assay: Caspase-9 expression level in HepG-2 cells; format: cell-based, human; settings: for Caspase-9 ± SE: HepG-2, at IC50 concentrations, control 11.01
Protocol: as §1, §2, §3, §4, §5, §6

[11] = test system: MCF-7; assay: MTT anti-proliferative assay, MCF-7; format: cell-based, human; settings: Homo sapiens, MCF7
[12] = test system: IL-6R; assay: IL-6R level in HepG-2 cells; format: cell-based, human
Protocol: as §1, §2, §3, §4, §5, §6

Sequence of EGFR (P00533 25-1210): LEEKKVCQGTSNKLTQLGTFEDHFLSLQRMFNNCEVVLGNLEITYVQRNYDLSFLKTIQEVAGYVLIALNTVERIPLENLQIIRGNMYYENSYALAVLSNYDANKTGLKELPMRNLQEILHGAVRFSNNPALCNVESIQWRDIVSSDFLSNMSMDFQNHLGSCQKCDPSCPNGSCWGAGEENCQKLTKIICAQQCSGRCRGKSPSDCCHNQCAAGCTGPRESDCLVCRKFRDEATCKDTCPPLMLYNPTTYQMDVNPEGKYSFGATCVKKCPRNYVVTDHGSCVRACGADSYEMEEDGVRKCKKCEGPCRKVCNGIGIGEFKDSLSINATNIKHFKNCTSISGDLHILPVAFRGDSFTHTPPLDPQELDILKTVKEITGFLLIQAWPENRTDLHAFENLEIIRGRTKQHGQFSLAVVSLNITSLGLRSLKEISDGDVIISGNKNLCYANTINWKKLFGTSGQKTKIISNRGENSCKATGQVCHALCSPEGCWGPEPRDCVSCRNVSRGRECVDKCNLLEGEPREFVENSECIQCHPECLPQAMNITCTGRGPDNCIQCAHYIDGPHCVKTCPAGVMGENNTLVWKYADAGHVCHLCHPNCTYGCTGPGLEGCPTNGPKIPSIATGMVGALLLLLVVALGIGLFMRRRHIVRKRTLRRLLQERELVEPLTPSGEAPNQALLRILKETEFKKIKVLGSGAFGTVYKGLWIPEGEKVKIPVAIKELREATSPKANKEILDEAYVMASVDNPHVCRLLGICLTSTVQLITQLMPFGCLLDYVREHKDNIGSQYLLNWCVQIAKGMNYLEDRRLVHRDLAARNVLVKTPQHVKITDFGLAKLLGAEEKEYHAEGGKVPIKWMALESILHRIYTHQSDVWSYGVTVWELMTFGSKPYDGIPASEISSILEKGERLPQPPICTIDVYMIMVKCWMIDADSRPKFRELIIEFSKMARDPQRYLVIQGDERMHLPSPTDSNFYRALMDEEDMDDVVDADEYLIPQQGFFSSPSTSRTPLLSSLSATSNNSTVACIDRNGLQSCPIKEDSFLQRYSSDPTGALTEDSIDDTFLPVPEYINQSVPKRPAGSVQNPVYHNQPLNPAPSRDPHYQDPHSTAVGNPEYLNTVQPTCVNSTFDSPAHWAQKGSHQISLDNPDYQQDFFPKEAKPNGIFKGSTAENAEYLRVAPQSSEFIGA

Activity % ([1]; HepG2): 52.262% | Inhibition % ([1]; HepG2): 47.738% | Activity % ([1]; K-562): 47.456% | Inhibition % ([1]; K-562): 52.544% | Activity % ([1]; MCF7): 25.292% | Inhibition % ([1]; MCF7): 74.708% | Activity % ([5]; HepG2): 33.564% | Inhibition % ([5]; HepG2): 66.436% | Activity % ([5]; K-562): 56.948% | Inhibition % ([5]; K-562): 43.052% | Activity % ([5]; MCF7): 80.680% | Inhibition % ([5]; MCF7): 19.320%
Compound: O=C(Cn1cnc2cc([N+](=O)[O-])ccc2c1=O)Nc1ccccc1Cl [9b, N-(2-Chlorophenyl)-2-(7-nitro-4-oxoquinazolin-3(4H)-yl)acetamide]
TNF-alpha ±SE ([2]; HepG-2, at IC50 concentrations): 27.34 ± 1.95 ng/L | TNF-alpha ±SE ([2]; raw data, HepG2): 14.37 ng/L | viability at 0.195 µmol ([3]; K-562, 0.195 umol): 47.5% | cytotoxicity at 0.195 µmol ([3]; K-562, 0.195 umol, read-out: Toxicity %): 52.5% | viability at 0.391 µmol ([3]; K-562, 0.391 umol): 37.8% | cytotoxicity at 0.391 µmol ([3]; K-562, 0.391 umol, read-out: Toxicity %): 62.2% | viability at 0.781 µmol ([3]; K-562, 0.781 umol): 25.5% | cytotoxicity at 0.781 µmol ([3]; K-562, 0.781 umol, read-out: Toxicity %): 74.5% | viability at 1.563 µmol ([3]; K-562, 1.563 umol): 13.6% | cytotoxicity at 1.563 µmol ([3]; K-562, 1.563 umol, read-out: Toxicity %): 86.4% | viability at 3.125 µmol ([3]; K-562, 3.125 umol): 8.05% | cytotoxicity at 3.125 µmol ([3]; K-562, 3.125 umol, read-out: Toxicity %): 92% | viability at 6.25 µmol ([3]; K-562, 6.25 umol): 8.5% | cytotoxicity at 6.25 µmol ([3]; K-562, 6.25 umol, read-out: Toxicity %): 91.5% | viability at 12.5 µmol ([3]; K-562, 12.5 umol): 6.86% | cytotoxicity at 12.5 µmol ([3]; K-562, 12.5 umol, read-out: Toxicity %): 93.1% | viability at 25 µmol ([3]; K-562, 25 umol): 6.2% | cytotoxicity at 25 µmol ([3]; K-562, 25 umol, read-out: Toxicity %): 93.8% | IC50 ([3]; MTT, K-562, read-out: Cytotoxicity against cancer cells IC50 K-562): 190 ± 3.7 nM | Caspase-3 ± SE [4]: 1.08 ± 0.028 ng/mL | Caspase-3 ± SE ([4]; listed as N5): 1.08 ng/mL | caspase-3 expression level, fold increase ([4]; HepG-2, vs control cells): 2.35 fold | IC50 at 3 days ([6]; HEK-293 cells (normal human embryonic kidney cells), MTT, HEK-293, read-out: Cytotoxicity against normal cell IC50 HEK-293): 1747 ± 2.6 nM | viability at 3 days, 0.195 umol/ml ([6]; HEK-293 cells (normal human embryonic kidney), HEK-293, 0.195 umol/ml): 98.1% | viability at 3 days, 0.391 umol/ml ([6]; HEK-293 cells (normal human embryonic kidney), HEK-293, 0.391 umol/ml): 76.9% | viability at 3 days, 0.781 umol/ml ([6]; HEK-293 cells (normal human embryonic kidney), HEK-293, 0.781 umol/ml): 62.1% | viability at 3 days, 1.563 umol/ml ([6]; HEK-293 cells (normal human embryonic kidney), HEK-293, 1.563 umol/ml): 52.7% | viability at 3 days, 3.125 umol/ml ([6]; HEK-293 cells (normal human embryonic kidney), HEK-293, 3.125 umol/ml): 29.7% | viability at 3 days, 6.25 umol/ml ([6]; HEK-293 cells (normal human embryonic kidney), HEK-293, 6.25 umol/ml): 17.2% | viability at 3 days, 12.5 umol/ml ([6]; HEK-293 cells (normal human embryonic kidney), HEK-293, 12.5 umol/ml): 8.78% | viability at 3 days, 25 umol/ml ([6]; HEK-293 cells (normal human embryonic kidney), HEK-293, 25 umol/ml): 6.3% | Toxicity % ([7]; HEK-293, 0.195 umol/ml): 1.903% | Toxicity % ([7]; HEK-293, 0.391 umol/ml): 23.13% | Toxicity % ([7]; HEK-293, 0.781 umol/ml): 37.87% | Toxicity % ([7]; HEK-293, 1.563 umol/ml): 47.29% | Toxicity % ([7]; HEK-293, 3.125 umol/ml): 70.33% | Toxicity % ([7]; HEK-293, 6.25 umol/ml): 82.82% | Toxicity % ([7]; HEK-293, 12.5 umol/ml): 91.22% | Toxicity % ([7]; HEK-293, 25 umol/ml): 93.7% | selectivity, cancer cells vs normal human kidney cells (fold) ([7]; HEK-293 vs K-562): 9 fold | selectivity, cancer cells vs normal human kidney cells (fold) ([7]; HEK-293 vs MCF-7): 8.4 fold | IC50 ([7]; Homo sapiens, HEK293, raw data, HEK-293): 1750 nM | viability at 0.195 µg/mL ([8]; HepG-2, 0.195 ug/ml): 49.7% | cytotoxicity at 0.195 µg/mL ([8]; HepG-2, 0.195 ug/ml, read-out: Toxicity %): 50.3% | viability at 0.391 µg/mL ([8]; HepG-2, 0.391 ug/ml): 37.3% | cytotoxicity at 0.391 µg/mL ([8]; HepG-2, 0.391 ug/ml, read-out: Toxicity %): 62.7% | viability at 0.781 µg/mL ([8]; HepG-2, 0.781 ug/ml): 27.7% | cytotoxicity at 0.781 µg/mL ([8]; HepG-2, 0.781 ug/ml, read-out: Toxicity %): 72.3% | viability at 1.563 µg/mL ([8]; HepG-2, 1.563 ug/ml): 13% | cytotoxicity at 1.563 µg/mL ([8]; HepG-2, 1.563 ug/ml, read-out: Toxicity %): 87% | viability at 3.125 µg/mL ([8]; HepG-2, 3.125 ug/ml): 9.93% | cytotoxicity at 3.125 µg/mL ([8]; HepG-2, 3.125 ug/ml, read-out: Toxicity %): 90.1% | viability at 6.25 µg/mL ([8]; HepG-2, 6.25 ug/ml): 7.8% | cytotoxicity at 6.25 µg/mL ([8]; HepG-2, 6.25 ug/ml, read-out: Toxicity %): 92.2% | viability at 12.5 µg/mL ([8]; HepG-2, 12.5 ug/ml): 6.7% | cytotoxicity at 12.5 µg/mL ([8]; HepG-2, 12.5 ug/ml, read-out: Toxicity %): 93.3% | viability at 25 µg/mL ([8]; HepG-2, 25 ug/ml): 5.93% | cytotoxicity at 25 µg/mL ([8]; HepG-2, 25 ug/ml, read-out: Toxicity %): 94.1% | IC50 ([8]; MTT, HepG-2, read-out: Cytotoxicity against cancer cells IC50 HepG-2): 194 ± 6.6 nM | % Sub-G1 ([9]; HepG-2, cytotoxic concentration, 24 h, control 68.12): 94.68% | % S ([9]; HepG-2, control 2.23): 0.19% | % G2/M ([9]; HepG-2, control 6.52): 0.24% | % G1 ([9]; HepG-2, control 23.14): 4.89% | Caspase-9 ± SE [10]: 7.31 ± 0.93 ng/L | Caspase-9 ± SE ([10]; listed as N5): 7.31 ng/L | caspase-9 expression level, fold increase ([10]; HepG-2, vs control cells): no apoptotic effect | viability at 0.195 µmol ([11]; MCF-7, 0.195 umol): 52.1% | cytotoxicity at 0.195 µmol ([11]; MCF-7, 0.195 umol, read-out: Toxicity %): 47.9% | viability at 0.391 µmol ([11]; MCF-7, 0.391 umol): 22.7% | cytotoxicity at 0.391 µmol ([11]; MCF-7, 0.391 umol, read-out: Toxicity %): 77.3% | viability at 0.781 µmol ([11]; MCF-7, 0.781 umol): 15.6% | cytotoxicity at 0.781 µmol ([11]; MCF-7, 0.781 umol, read-out: Toxicity %): 84.4% | viability at 1.563 µmol ([11]; MCF-7, 1.563 umol): 11.9% | cytotoxicity at 1.563 µmol ([11]; MCF-7, 1.563 umol, read-out: Toxicity %): 88.1% | viability at 3.125 µmol ([11]; MCF-7, 3.125 umol): 9.45% | cytotoxicity at 3.125 µmol ([11]; MCF-7, 3.125 umol, read-out: Toxicity %): 90.5% | viability at 6.25 µmol ([11]; MCF-7, 6.25 umol): 8% | cytotoxicity at 6.25 µmol ([11]; MCF-7, 6.25 umol, read-out: Toxicity %): 92% | viability at 12.5 µmol ([11]; MCF-7, 12.5 umol): 7.26% | cytotoxicity at 12.5 µmol ([11]; MCF-7, 12.5 umol, read-out: Toxicity %): 92.7% | viability at 25 µmol ([11]; MCF-7, 25 umol): 6.77% | cytotoxicity at 25 µmol ([11]; MCF-7, 25 umol, read-out: Toxicity %): 93.2% | IC50 ([11]; MTT, MCF-7, read-out: Cytotoxicity against cancer cells IC50 MCF-7): 209 ± 3.7 nM | IL-6R ± SE ([12]; HepG-2, at IC50 concentrations, control 44.10): 28.78 ± 1.23 ng/L | IL-6R protein level ([12]; HepG-2, control 44.10%): 28.78 ng/L | IL-6 ±SE ([12]; raw data, HepG2, control 44.10): 19.54 ng/L
